Like-named read-outs stand apart in the source and are kept apart here.
Columns and labels:
[1] = target: Tet(X4) (Escherichia coli, UniProt A0A3T0V9Y5); test: FP competitive displacement of probe 6; assay type: binding; conditions: 25 nM 6, 40 nM Tet(X4), 5 mM MgCl2, 1 μM FAD, 100 mM Tris pH 7.0, 0.01% Triton X-100
Protocol: A 2× solution containing 80 nM Tet(X4), 2 μM FAD and 10 mM MgCl2 in the assay buffer was dispensed into the first 22 columns of a 384-well black, non-binding microtiter plate (Greiner Bio-One), 12.5 μL per well, using a microplate reagent dispenser. A solution of 2 μM FAD and 10 mM MgCl2 in the assay buffer was dispensed into the remaining columns to serve as a no enzyme control. A 3-fold, 10-point dilution series of substrates and inhibitors was made in DMSO in a V-bottom 96-well plate (Greiner Bio-One) with a highest concentration of 5 mM or 0.5 mM. Into one column was added DMSO with no inhibitor or substrate, to serve as a positive control. Tigecycline was included as a reference on every plate to ensure reproducibility. 0.5 μL of each dilution was transferred in quadruplicate to the 384-well plate containing enzyme solution using a CyBi-Well liquid-handling robot (CyBio). A solution of 50 nM 6 in the assay buffer was then dispensed, with 12.5 μL per well. The plate was briefly centrifuged (1000 rpm), then incubated at ambient temperature for 30 min prior to measuring the FP. Data points were normalised between the positive and negative controls. Normalised % response was plotted as a function of log10([Inhibitor]), and the IC50^app was determined by fitting the data to the equation: Y = Bottom + (top-bottom)/(1 + 10^Log(IC50) − X) × HillSlope in GraphPad Prism 9.4.1, where Y = % response and X = log10([Inhibitor]). Wells with unusual fluorescence intensities were manually identified and removed from the analysis. […]

[2] = system: E. coli TOP10 containing plasmid pBAD-TOPO-Tet(X4); test: Broth microdilution MIC and checkerboard assay; assay type: cell-based, Escherichia coli; conditions: alone; without L-arabinose induction
Description: Tet(X4) was sub-cloned from the Tet(X4) pET28b-(+) expression vector via TOPO cloning. The insert was amplified using the taq polymerase with the forward primer 5′- […]-3′ and the reverse primer 5′- […]-3’. Following PCR purification (Thermo Fisher Scientific), the A-tailed PCR product was ligated into the pBAD-TOPO vector using a TOPO cloning kit (Invitrogen) according to the manufacturer's protocol. Following amplification in E. coli NEB5α cells (NEBiolabs), the fidelity of the insert was confirmed by Sanger sequencing (Eurofins). For microbiological experiments, E. coli TOP10 cells were used as the recipient strain. Cells were plated on Mueller-Hinton agar (MHA) plates containing ampicillin at 100 μg mL^−1. The introduction of pBAD-TOPO-Tet(X4) was confirmed by colony PCR. Strains were stored in a freezer at −80 °C in cryopreservation beads.
(§1) MIC tests and checkerboard assays were performed in U-bottom, 96-well microtiter plates using a modified broth microdilution protocol following CLSI guidelines. Cation-adjusted Mueller-Hinton Broth (CAMHB) was prepared fresh on the day of testing.[74] […] Bacterial colonies were selected from an overnight culture on MHA plates (supplemented with 0.2%w/vL-arabinose for E. coli TOP10 containing pBAD-TOPO-Tet(X4)) and were suspended in 0.9% saline solution to achieve a 0.5 McFarland standard. A 100 μL aliquot of this suspension was then diluted into 9.9 mL of CAMHB to yield approximately 1.5 × 10^6 cfu mL^−1. 50 μL of the suspension was then added to each well of a microtiter plates. Plates were incubated at 37 °C for 18 h. At least 2 replicates were conducted for each combination. E. coli TOP10 + pBAD-TOPO-Tet(X4) cells were grown in the absence and presence of 0.2%w/vL-arabinose. Analysis of the MIC and checkerboard results were carried out by visual inspection of growth, with and without resazurin dye, an oxidation–reduction indicator.[75] As a measure of synergy, fractional inhibitory concentration index (FICI) was calculated as FICA + FICB, where FICA and FICB are the MICcombination/MICalone for each agent, respectively.[76] Results were interpreted as follows: synergistic (<0.5), indifferent (1.0–4.0) or antagonistic (>4.0).[64] In cases where the MIC exceeded or was below the measured range, the borderline value was taken to calculate the FIC index.

[3] = system: Acinetobacter spp. NT3-1 – tet(X3); test: microbe, parasite or virus in culture; assay type: cell-based
Protocol: (§2) MIC tests and checkerboard assays were performed in U-bottom, 96-well microtiter plates using a modified broth microdilution protocol following CLSI guidelines. Cation-adjusted Mueller-Hinton Broth (CAMHB) was prepared fresh on the day of testing.[74] In brief, assays were set up in a total volume of 100 μL per well and titrations comprised seven 2-fold dilutions of inhibitors and ten 2-fold dilutions of tigecycline in CAMHB. Bacterial colonies were selected from an overnight culture on MHA plates (supplemented with 0.2%w/vL-arabinose for E. coli TOP10 containing pBAD-TOPO-Tet(X4)) and were suspended in 0.9% saline solution to achieve a 0.5 McFarland standard. A 100 μL aliquot of this suspension was then diluted into 9.9 mL of CAMHB to yield approximately 1.5 × 10^6 cfu mL^−1. 50 μL of the suspension was then added to each well of a microtiter plates. Plates were incubated at 37 °C for 18 h. At least 2 replicates were conducted for each combination. E. coli TOP10 + pBAD-TOPO-Tet(X4) cells were grown in the absence and presence of 0.2%w/vL-arabinose. Analysis of the MIC and checkerboard results were carried out by visual inspection of growth, with and without resazurin dye, an oxidation–reduction indicator.[75] As a measure of synergy, fractional inhibitory concentration index (FICI) was calculated as FICA + FICB, where FICA and FICB are the MICcombination/MICalone for each agent, respectively.[76] Results were interpreted as follows: synergistic (<0.5), indifferent (1.0–4.0) or antagonistic (>4.0).[64] In cases where the MIC exceeded or was below the measured range, the borderline value was taken to calculate the FIC index.

[4] = system: Salmonella enterica T-2a – tet(X4); test: microbe, parasite or virus in culture; assay type: cell-based
Protocol: as §2

[5] = system: Acinetobacter baumannii NT5-1 – tet(X5); test: microbe, parasite or virus in culture; assay type: cell-based
Protocol: as §1

[6] = system: Escherichia coli T-24a – tet(X4); test: microbe, parasite or virus in culture; assay type: cell-based
Protocol: as §1

[7] = system: Proteus penneri NT6-2 – tet(X6); test: microbe, parasite or virus in culture; assay type: cell-based
Protocol: as §1

[8] = IC50app, Tet(X4) (Polarization)
[9] = inhibitor in combination with tigecycline, lowest FICI
[10] = tigecycline in combination with the inhibitor, lowest FICI

CN(C)[C@@H]1C(O)=C(C(N)=O)C(=O)[C@@]2(O)C(O)=C3C(=O)c4c(O)cccc4C[C@H]3C[C@@H]12 [Sancycline]
IC50 ([1]; IC50app, FP assay): 47 ± 7.1 nM

C[C@@H](Oc1cc(-c2cnn(C3CCNCC3)c2)cnc1N)c1c(Cl)ccc(F)c1Cl [Crizotinib]
IC50 [1, 8]: > 100000 nM

NCCc1ccc(O)c(O)c1 [Dopamine]
IC50 [1, 8]: > 100000 nM

CN(C)[C@@H]1C(O)=C(C(N)=O)C(=O)[C@@]2(O)C(O)=C3C(=O)c4c(O)cccc4[C@@](C)(O)[C@H]3C[C@@H]12 [Tetracycline]
IC50 ([1]; IC50app, FP assay): 69.6 ± 8.8 nM | Antibiotic MIC [2]: 4 µg/mL

CN(C)[C@@H]1C(O)=C(C(N)=O)C(=O)[C@@]2(O)C(O)=C3C(=O)c4c(O)cccc4[C@@](C)(O)[C@H]3[C@H](O)[C@@H]12 [Oxytetracycline]
IC50 ([1]; IC50app, FP assay): 4430 ± 260 nM

NCCS [Cysteamine]
IC50 ([1]; read-out: IC50app, Tet(X4) (Polarization)): > 100000 nM

CN(C)c1ccc(O)c2c1C[C@H]1C[C@H]3[C@H](N(C)C)C(O)=C(C(N)=O)C(=O)[C@@]3(O)C(O)=C1C2=O [Minocycline]
IC50 ([1]; IC50app, FP assay): 51.5 ± 3.6 nM

N=C(N)c1ccc(/N=N/Nc2ccc(C(=N)N)cc2)cc1 [Diminazene]
IC50 [1, 8]: > 100000 nM

Nc1ccc2cc3ccc(N)cc3nc2c1 [Proflavine]
IC50 [1, 8]: > 100000 nM

C[C@]12CCC(=O)C=C1[C@@H]1C[C@@H]1[C@H]1[C@@H]3[C@@H]4C[C@@H]4[C@@]4(CCC(=O)O4)[C@@]3(C)CC[C@@H]12 [Drosperinone]
Tet(X) inhibitor MIC ([3]; alone, Acinetobacter spp. NT3-1): 128 µg/mL | Combination (Antibiotic/Inhibitor) MICs: inhibitor [3, 9]: 128 µg/mL | Combination (Antibiotic/Inhibitor) MICs: antibiotic [3, 10]: 4 µg/mL | FICI ([3]; with tigecycline): 2 | Outcome ([3]; with tigecycline): indifferent (indifferent (0.5-4.0)) | Combination (Antibiotic/Inhibitor) MICs: antibiotic [4, 10]: 16 µg/mL | FICI ([4]; with tigecycline): 1.5 | Outcome ([4]; with tigecycline): indifferent (indifferent (0.5-4.0)) | Tet(X) inhibitor MIC ([5]; alone, A. baumannii NT5-1): > 128 µg/mL | Combination (Antibiotic/Inhibitor) MICs: inhibitor [5, 9]: 128 µg/mL | Combination (Antibiotic/Inhibitor) MICs: antibiotic [5, 10]: 4 µg/mL | FICI ([5]; with tigecycline): 1.5 | Outcome ([5]; with tigecycline): indifferent (indifferent (0.5-4.0)) | Tet(X) inhibitor MIC ([6]; alone, E. coli T-24a): 256 µg/mL | Combination (Antibiotic/Inhibitor) MICs: antibiotic [6, 10]: 8 µg/mL | FICI ([6]; with tigecycline): 1 | Outcome ([6]; with tigecycline): indifferent (indifferent (0.5-4.0)) | Tet(X) inhibitor MIC ([7]; alone, P. penneri NT6-2): > 128 µg/mL | Combination (Antibiotic/Inhibitor) MICs: inhibitor [7, 9]: 128 µg/mL | Combination (Antibiotic/Inhibitor) MICs: antibiotic [7, 10]: 8 µg/mL | FICI ([7]; with tigecycline): 2 | Outcome ([7]; with tigecycline): indifferent (indifferent (0.5-4.0))

Nc1nc2c(c(=O)[nH]1)N(C=O)C(CNc1ccc(C(=O)N[C@@H](CCC(=O)O)C(=O)O)cc1)CN2 (stereo partly shown) [Calcium folinate]
IC50 [1, 8]: > 100000 nM

CN(C)[C@@H]1C(O)=C(C(N)=O)C(=O)[C@@]2(O)C(O)=C3C(=O)c4c(O)c(NC(=O)CN5CCCC5)cc(F)c4C[C@H]3C[C@@H]12 [Eravacycline]
IC50 ([1]; IC50app, FP assay): 13.7 ± 1.6 nM

CON(C)Cc1ccc(O)c2c1C[C@H]1C[C@H]3[C@H](N(C)C)C(O)=C(C(N)=O)C(=O)[C@@]3(O)C(O)=C1C2=O [Sarecycline]
IC50 ([1]; IC50app, FP assay): 31.5 ± 10 nM

COc1ccnc(C[S+]([O-])c2nc3cc(-n4cccc4)ccc3[nH]2)c1C (stereo not shown) [Ilaprazole]
IC50 [1, 8]: > 100000 nM

CCC1(c2cnc[nH]2)Cc2ccccc2C1 [Atipamezole]
IC50 [1, 8]: > 100000 nM

CN(C)[C@@H]1C(O)=C(C(N)=O)C(=O)[C@@]2(O)C(O)=C3C(=O)c4c(O)ccc(Cl)c4[C@@](C)(O)[C@H]3C[C@@H]12 [Chlortetracycline]
IC50 ([1]; IC50app, FP assay): 39 ± 9.6 nM

CN(C)c1cc(CNCC(C)(C)C)c(O)c2c1C[C@H]1C[C@H]3[C@H](N(C)C)C(O)=C(C(N)=O)C(=O)[C@@]3(O)C(O)=C1C2=O [Omadacycline]
IC50 ([1]; IC50app, FP assay): 24.3 ± 4 nM

NC(=O)c1ncn([C@@H]2O[C@H](CO)[C@@H](O)[C@H]2O)c1O [Mizoribine]
IC50 [1, 8]: > 100000 nM

CCN(CC)C(=S)SSC(=S)N(CC)CC [Disulfiram]
IC50 [1, 8]: > 100000 nM

CN(C)[C@@H]1C(O)=C(C(N)=O)C(=O)[C@@]2(O)C(O)=C3C(=O)c4c(O)ccc(Cl)c4[C@@H](O)[C@H]3C[C@@H]12 [Demeclocycline]
IC50 ([1]; IC50app, FP assay): 29 ± 4.6 nM

C=C1c2cccc(O)c2C(=O)C2=C(O)[C@]3(O)C(=O)C(C(N)=O)=C(O)[C@@H](N(C)C)[C@@H]3[C@@H](O)[C@H]12 [Methacycline]
IC50 ([1]; IC50app, FP assay): 311 ± 36 nM

Source: PMC12056667 (Chemical Science, 2025)
